# Read-outs that look alike come from different tables or passages of the source. Square brackets hold non-standard residues; d marks the D form. Ends that are not written are not given here. pY = N[C@@H](Cc1ccc(OP(=O)(O)O)cc1)C(=O)O
# Experiments:
# CBL mutant 70Z = test: GFP-trap co-immunoprecipitation with Myc-tagged CBL-70Z in HEK293 cells; type: cell-based; details: expressed as GFP-CBLock variants in HEK293 cells
# Description: The cells were pelleted and lysed in IP lysis buffer (50 mM Tris-HCl pH 7.5, 150 mM NaCl, 1 mM EDTA, 1% IGEPAL CA-630, 10% glycerol, 0.5 mM DTT, and cOmplete protease inhibitor cocktail) to prepare the whole cell lysates. Immunoprecipitation and immunoblotting were performed using the lysates as described before.[28] For each regular immunoprecipitation reaction, 1 mg freshly prepared whole cell lysate was incubated with primary antibodies at 4 °C for 4 h on a rotatory shaker. […] Alternatively for each reaction, 1 mg freshly prepared whole cell lysate was incubated overnight with antibody- or immunoglobulin (Ig)G-conjugated agarose beads. The next day beads were washed three times with IP lysis buffer and once with PBS. […] This was followed by similar washing steps as mentioned before. The beads were then either processed for mass spectrometry or immunoprecipitated proteins were eluted at 95 °C in 40 μL 2X loading dye. A previous method was used to perform immunoblotting[51] and the immunoblots were scanned using an Odyssey CLx Imaging System (LI-COR Biosciences).
# [1] = Solubility as noted by the authors; type: physicochemical; details: qualitative, aqueous solution
# [2] = tested on: MOLM-13Luc/CBLock cells in NSG mice
# [3] = tested on: CBL (47–435) R139C/D435C variant (diCys); test: Disulfide bond formation assay; type: biochemical; details: CBL 47–435 diCys, SDS-PAGE, n = 3
# Description: CBL variant mixtures were prepared at room temperature as described previously,[7] keeping aside a sample portion for zero-time point. Removal of DTT using a Zeba spin desalting column (Thermo Scientific) initiated the reactions. At indicated time points, samples were removed and quenched with 20 mM N-ethylmaleimide (NEM; Sigma) for 10 min and mixed with 4X SDS loading buffer. DTT (100 mM) was added to prepare the reduced samples. The samples were resolved by SDS-PAGE and the gels stained with Coomassie blue were scanned. The disulfide-bonded (D) and unmodified species (U) were quantified using the Image Studio software. Three independent experiments were performed, and curves for the disulfide bond fractions from each reaction were generated using GraphPad Prism.
compound,measurement,setting,value
IKDWQDRSVWESMTME [CBLock-Sc2],Binding to CBL mutant 70Z,CBL mutant 70Z,failed to bind the CBL mutant 70Z
CBLock-DM: CBLock mutant D7A/I10A expressed as GFP or iRFP fusion (MTVEEMASWAKSWDQR; also: fused to GFP or iRFP),Binding to CBL mutant 70Z,CBL mutant 70Z,failed to bind the CBL mutant 70Z
CC[C@H](C)[C@H](NC(=O)[C@H](Cc1c[nH]c2ccccc12)NC(=O)[C@H](CO)NC(=O)[C@H](CC(=O)O)NC(=O)[C@H](CCSC)NC(=O)[C@H](CCC(=O)O)NC(=O)[C@H](CCC(=O)O)NC(=O)[C@@H](NC(=O)[C@@H](NC(=O)[C@@H](N)CCSC)[C@@H](C)O)C(C)C)C(=O)N[C@@H](CCCCN)C(=O)N[C@@H](CO)C(=O)N[C@@H](Cc1c[nH]c2ccccc12)C(=O)N[C@@H](CC(=O)O)C(=O)N[C@@H](CCC(N)=O)C(=O)N[C@@H](CCCNC(=N)N)C(=O)O [CBLock],Solubility,[1],enhanced solubility in aqueous solution
same,Body weight,[2]; cohort two,no marked changes in body weights
same,Body weight,"[2]; first experiment, dox vs vehicle",no obvious difference in body weight
"STVSFNP[pY]EPTGGPWG [pSYK, phosphotyrosine substrate peptide from SYK]",Effect on diCys disulfide bond formation,[3],prevented formation of the diCys disulfide bond
"TLNSDG(p)YTPEPA [pZAP70, phosphotyrosine substrate peptide from ZAP70]",Effect on diCys disulfide bond formation,[3],prevented formation of the diCys disulfide bond
SMEKTDQWRMVEIDSW [CBLock-Sc1],Binding to CBL mutant 70Z,CBL mutant 70Z,failed to bind the CBL mutant 70Z

# Reference: PMC12461627, “Locking CBL TKBD in its native conformation presents a novel therapeutic opportunity in mutant CBL-dependent leukemia” (Molecular Therapy, 2025)
